As usually defined, the IC50 is the concentration that inhibits the measured activity by half.

The values below come from patent publication US20230183207A1 (priority 2020, published 2023).

SMILES strings stand for the structures.

For experiment [1], the system named is SARS-CoV-2 strains JPN/TY/WK-521 and NCGM-nCoV-05-2N. Kind of experiment: microbe, parasite or virus in culture. Type of experiment: cell-based. Conditions: for IC50: Severe acute respiratory syndrome coronavirus 2, Vero C1008, read-out: IC50 against SARS-CoV-2.
In a further experiment the test system is SARS-CoV-2. It counts as cell-based.

As to `N=C(N)c1ccc2cc(OC(=O)c3ccc(N=C(N)N)cc3)ccc2c1` [nafamostat], the “reasonable effects against SARS-CoV-2 in the assays” value (from here on “reasonable effects”) in experiment [1] is “none”.
For the compound `C=CCn1ccc2c(C(=O)Oc3cncc(Cl)c3)cccc21` [GRL-0820S], the IC50 in experiment [1] turned out to be 15000 ± 18000 nM. In the experiment on SARS-CoV-2, the “blocking of infectivity, replication and cytopathic effect of SARS-CoV-2” value was “significantly blocked the infectivity and replication”; the viral breakthrough result is “viral breakthrough occurred”.
`CCC(CC)COC(=O)[C@H](C)N[P@](=O)(OC[C@H]1O[C@@](C#N)(c2ccc3c(N)ncnn23)[C@H](O)[C@@H]1O)Oc1ccccc1` [remdesivir]: the IC50 in experiment [1] is 2600 ± 700 nM.
For the compound `NC(=O)c1ncn([C@@H]2O[C@H](CO)[C@@H](O)[C@H]2O)n1` [ribavirin], in experiment [1], the “reasonable effects” value was “none”.
Same read-out and setting: then `NC(=O)c1nc(F)c[nH]c1=O` [favipiravir], with “none”.
`O=C(Oc1cncc(Cl)c1)c1cccc2[nH]ccc12` [GRL-0920S]: in experiment [1], the IC50 turned out to be 2800 ± 300 nM. Further, in the experiment with SARS-CoV-2, the “block of infectivity and cytopathic effect of SARS-CoV-2 (FIG. 1)” value was “virtually completely block the infectivity and cytopathic effect”; the “blocking of infectivity, replication and cytopathic effect of SARS-CoV-2” value is “completely blocked the infectivity, replication, and cytopathic effect”.
`Cc1cccc(C)c1OCC(=O)N[C@@H](Cc1ccccc1)[C@@H](O)C[C@H](Cc1ccccc1)NC(=O)[C@H](C(C)C)N1CCCNC1=O` [lopinavir]: the “reasonable effects” value in experiment [1] is on record as “none”.
On the same count and under the same terms, then `CC(=O)Oc1ccccc1C(=O)Nc1ncc([N+](=O)[O-])s1` [nitazoxanide], with “none”; and `CCN(CCO)CCCC(C)Nc1ccnc2cc(Cl)ccc12` (centres unmarked) [hydroxychloroquine], with “none”; and `Cc1c(O)cccc1C(=O)N[C@@H](CSc1ccccc1)[C@H](O)CN1C[C@H]2CCCC[C@H]2C[C@H]1C(=O)NC(C)(C)C` [nelfinavir], with “none”.
